ChEMBL document CHEMBL4619732, “Two new secondary metabolites, saccharochlorines A and B, from a marine bacterium Saccharomonospora sp. KCTC-19160” (Bioorg Med Chem Lett, 2020)
Calls of active or inactive are those of the source. The calls are words filed in the database; no cut-off is given here.

Columns and labels:
SH-SY5Y [1] = experiment: Induction of amyloid beta (1 to 40) secretion in human SH-SY5Y cells incubated for overnight by ELISA; assay type: functional, cell-based
SH-SY5Y [2] = experiment: Induction of amyloid beta (1 to 42) secretion in human SH-SY5Y cells incubated for overnight by ELISA; assay type: functional, cell-based
H4 [3] = experiment: Induction of amyloid beta (1 to 40) secretion in human H4 cells overexpressing APP incubated for overnight by ELISA; assay type: functional, cell-based
H4 [4] = experiment: Induction of amyloid beta (1 to 42) secretion in human H4 cells overexpressing APP incubated for overnight by ELISA; assay type: functional, cell-based
Homo sapiens = species: Homo sapiens; experiment: Inhibition of monoamine oxidase (unknown origin)

inhibition (Homo sapiens)	Structure (SMILES)	Activity (SH-SY5Y [1])	Activity (SH-SY5Y [2])	Activity (H4 [3])	Activity (H4 [4])
inactive	CO/C(=C\c1cc(Cl)c(O)c(Cl)c1)C(=O)O	inactive	inactive	Dose-dependent effect	Dose-dependent effect
inactive	CO/C(=C\c1ccc(O)c(Cl)c1)C(=O)O	inactive	inactive	Dose-dependent effect	Dose-dependent effect
